Assay results published in US20070264241A1, “Compounds for Enhanced Cancer Therapy” (priority 2004, published 2007).
“Also recorded” adds a separate entry of the source.

Columns and labels:
[1] = test system: Cx43 in human neural stem cells (HNSC.100); experiment: Western blot analysis for Cx43 in neural stem cells; assay type: cell-based; conditions: 0.5 mM 4-PB, up to 4 days
Method: Human neural stem cells (HNSC.100 cells, Villa et al Exp Neurol, 2000, 161(1):67-84) were obtained from Alberto Martinez Serrano, Department of Molecular Biology, Center of Molecular Biology Severo Ochoa, Autonomous University of Madrid-CSIC, Campus Cantoblanco, Madrid, 28049, Spain. Neural stem cells were grown to around 50% confluence and then 0.5 mM 4-PB treatment was started and continued for 4 days. Medium was replaced every 2nd day with fresh drug. Whole-cell lysates from three 100 mm petri dishes were solubilized in 100 μl of lysis buffer containing 250 mM Tris-HCl (pH 8.5), 2% SDS, 10% glycerol, 0.05 mM PMSF and protease inhibitor cocktail (Roche). Protein concentrations were quantified using the micro BSA protein assay kit (Pierce). Cell lysates were further mixed with loading buffer containing 1% β-mercaptoethanol, 0.02% bromophenol blue, and 0.1 M DTT. […] For quantification, films were scanned and analyzed with Image Gauge (Version 3.12, Fuji Photo Film Corp.). All results are expressed as means ± SE for the indicated number of experiments (FIG. 13). […] As the bands of protein became visible, the membranes were washed several times and total amount of loaded protein was quantified using computerized densitometric analysis.

[2] = test system: gap junction communication in primary glioblastoma cells (hGBM-1); experiment: Fluorescent dye (calcein/Dil) transfer between primary glioblastoma cells; assay type: cell-based, human; conditions: recipient cells 5 mM 4-PB for 48 hours prior to dye transfer
Method: Primary glioblastoma cells were cultured on 35 mm petri dishes and in vitro labelled with 5 μM calcein-AM (acetomethylic ester) and 10 μM Dil (Molecular Probes) diluted in supplemented serum free medium DMEM/F12 and incubated for 30 min at 37° C. The cells were washed once with the same medium, trypsinized and suspended in the culture medium induding 10% FBS. The cells were pelleted by centrifugation at 1600 rpm for 1 minute and resuspended in fresh culture medium. The procedure was repeated twice. Following the second resuspension, the labelled cells were plated on top of unlabelled cells of the same origin. These cells were either pretreated with 4-PB at a concentration of 5 mM, or non-treated for serving as a control. The labeled cells were then allowed to settle for 1 hour, followed by analyses using epifluorescence detection microscopy every 30 minutes for up to 6 hours. GJC (gap-junction communication) were studied using an Olympus BX50WI microscope equipped with UV epifluorescence and red and green attenuating filters.

[3] = test system: GFAP and connexin 43 in S6 cells; experiment: Western blot of GFAP and connexin 43 in S6 glioma cells after 4-PB; assay type: cell-based, Rat; conditions: 2 mM 4-PB for 2 days
Method: Protein from S6 cells treated with 4-PB for 48 h was extracted and a Western blot analysis was performed. The intensity of the Cx43 specific signal was determined by imager and the activation of Cx43 was calculated. S6 cells not treated with 4-PB acted as reference.

[4] = test system: U87MG cells; experiment: XTT cytotoxicity assay of phenylbutyrate and of nucleoside analogues with or without phenylbutyrate pre-incubation; assay type: cell-based, human; conditions: 4-phenylbutyrate cytotoxicity assay, incubation 24 hours; read-out: IC50 U87MG (phenylbutyrate alone)
Method: Briefly, cells were harvested by trypsinzation, stained by Tryphan Blue for cell viability counting, seeded in triplicate in 96-well plates (1.000-2.000 cells/well) where after media conditioned with a fixed concentration of phenyl butyrate (3.16 mM) were added to the plates followed by incubation for 24 hours at 37° C. and 5% CO2. Cell proliferation/cytotoxicity was assessed by adding the colour generating substrates of the Cell Proliferation kit II (XTT) from Roche (Cat. No. 1465015) and measuring absorbance at 450 nm and 690 nm with a Thermo Labsystems Multiscan Ascent reader.
(§1) Cells were seeded at a density of 1.000-2.000 cells/well in 96-well plates. Cells were pre-incubated with 4-phenyl butyrate for 24 hours prior to drug exposure by adding media conditioned with phenyl butyrate at a fixed concentration (3.16 mM). Plated incubated for 24 hours (37° C., 5% CO2) where after media was discarded and replaced by media conditioned with various concentrations of nucleoside analogs (e.g. AZT), 200 μl/well. After 120 hours of drug exposure the experiments were terminated. Cell proliferation/cytotoxicity was assessed by adding the colour generating substrates of the Cell Proliferation kit II (XTT) from Roche (Cat. No. 1465015) and measuring absorbance at 450 nm and 690 nm with a Thermo Labsystems Multiscan Ascent reader.
The data was corrected for background media-only absorbance where after the 50% growth inhibitory concentration—IC50 (the dose that inhibits cell growth by 50%) was calculated for each treatment.
Briefly, cells were harvested by trypsinzation, stained by Tryphan Blue (Cambrex) for cell viability counting, seeded in triplicate in poly-L-lysine (PLL) (Sigma # P6282) coated 96-well plates (1.000-2.000 cells/well) where after media conditioned with a fixed concentration of phenyl butyrate (3.16 mM) was added to the plates followed by incubation for 24 hours at 37° C. and 5% CO2. Cell proliferation/cytotoxicity was assessed by adding the colour generating substrates of the
as §1, with “cells/well in PLL coated 96-well plates.” for “cells/well in 96-well plates.”, “of nucleoside analogs; AZT (Sigma # A2169), AraC (Sigma # C6645), Cladribine (CdA) (Sigma #C4438), Gancidovir (GCV) (Sigma # G2536) and Gemcitabine (Orifarm), 200 μl/well.” for “of nucleoside analogs (e.g. AZT), 200 μl/well.”, “Ascent reader. he data was corrected for background media-only absorbance where after the 50% growth inhibitory concentration—IC50 (the dose that inhibits cell growth by 50%) was calculated for ach treatment.” for “Ascent reader.”

Substance: 4-phenylbutyrate [4-PB]
- level of Cx43 protein (Western blot) [1]: increased; also recorded: upregulated
- intercellular spread of calcein (gap junction dye transfer) [2]: markedly improved; also recorded: facilitated gap junction dependent calcein transfer substantially
- expression of GFAP [3]: increased expression
- expression of connexin 43 [3]: increased expression
- IC50 [4]: 4.14 mM
